Where “and” joins values, the source holds several entries; their conditions need not be identical. Equal entries are not always repeated.
Columns and labels:
α1a-AR = biological target: T1, α1a-AR (Homo sapiens, UniProt P35348); experiment: α1-Adrenergic receptor radio-ligand (125I-HEAT) binding assay, α1a subtype; conditions: COS-7 cell membranes transfected with α1a-AR, 125I-HEAT 50 pM; read-out: Receptor Binding, Ki α1a-AR
T1 construct: expressed in transfected cells; host or cells: COS-7
T1 sequence (P35348 1-466): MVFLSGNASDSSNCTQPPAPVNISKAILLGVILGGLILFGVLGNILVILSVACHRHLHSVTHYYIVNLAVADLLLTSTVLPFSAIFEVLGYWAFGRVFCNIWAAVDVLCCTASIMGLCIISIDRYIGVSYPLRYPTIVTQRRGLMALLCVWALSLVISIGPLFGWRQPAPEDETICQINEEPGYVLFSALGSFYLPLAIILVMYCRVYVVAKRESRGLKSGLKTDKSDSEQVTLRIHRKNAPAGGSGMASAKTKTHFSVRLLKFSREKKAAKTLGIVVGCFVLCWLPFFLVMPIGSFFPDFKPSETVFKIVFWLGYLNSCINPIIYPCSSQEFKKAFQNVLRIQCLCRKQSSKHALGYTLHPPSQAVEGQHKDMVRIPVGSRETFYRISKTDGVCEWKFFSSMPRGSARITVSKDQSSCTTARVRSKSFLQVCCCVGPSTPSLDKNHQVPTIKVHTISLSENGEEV
Procedure: (§1) Membranes were prepared from COS-7 cells (African Green monkey kidney SV40-transformed cells) that had been transfected with one of the three α1-AR subtypes by the following method:
(§2) COS cells from ten 100 mm tissue culture plates were scraped into a 5 mL volume of TE (a mixture of 50 mM tris(hydroxymethyl)aminomethane hydrochloride (Tris-HCl) and 5 mM ethylenediaminetetraacetic acid (EDTA) at pH 7.4). The cell suspension was disrupted with a Brinkman Polytron (at a setting of 8) for 10 sec. The disrupted cells were centrifuged at 1000×g for 10 min at 4° C. Supernatants were centrifuged at 34,500×g for 20 min at 4° C. The membrane pellets were suspended in a 2 mL volume of TNE (a mixture of 50 mM Tris-HCl, 5 mM EDTA and 150 mM NaCl at pH7.4). An aliquot of the membrane suspension was stored at −70° C. until use. The protein concentration was determined using a BioRad “DC” protein assay kit following membrane solubilization with Triton X-100.
(§3) Triplicate determinations of radio-ligand binding in the presence of increasing concentrations of testing compound were made. The reagents were added to 96-well polypropylene plate wells. Each assay well contained 140 μL TNE, 25 μL ^125I-2-(β-4-hydroxyplenyl)ethylaminomethyltetralone (^125I-HEAT) (specific activity 2200 Ci/mmol, Dupont-New England Nuclear, 50 pM final), 10 μL testing compound dissolved in dimethyl sulfoxide (DMSO) (1 pM to 10 μM in half-log increments, final), and 25 μL appropriate α1-AR membrane subtype suspension in TNE (0.5 ng/μL for the α1a and α1b subtypes and 13 ng/μL for the α1d subtype). The plate was incubated at rt for 1 hr. The contents of the wells were filtered through a glass filter (type C) (GF/C) membrane Unifilter plate (Packard Instruments) using the Packard Filtermate cell harvester. The filter plates were dried in a vacuum oven for 30 min at 40° C. 25 μL Microscint 20 liquid scintillation fluid (Packard Instuments) was added to each well. The radioactive content was analyzed in the TopCount microplate scintillation counter (Packard Instruments).
(§4) The Ki values (in nM) shown in Table 1 were determined using GraphPad Prism software.

α1b-AR = biological target: T2, α1b-AR (Homo sapiens, UniProt P35368); experiment: α1-Adrenergic receptor radio-ligand (125I-HEAT) binding assay, α1b subtype; conditions: COS-7 cell membranes transfected with α1b-AR, 125I-HEAT 50 pM; read-out: Receptor Binding, Ki α1b-AR
T2 construct: expressed in transfected cells; host or cells: COS-7
T2 sequence (P35368 1-520): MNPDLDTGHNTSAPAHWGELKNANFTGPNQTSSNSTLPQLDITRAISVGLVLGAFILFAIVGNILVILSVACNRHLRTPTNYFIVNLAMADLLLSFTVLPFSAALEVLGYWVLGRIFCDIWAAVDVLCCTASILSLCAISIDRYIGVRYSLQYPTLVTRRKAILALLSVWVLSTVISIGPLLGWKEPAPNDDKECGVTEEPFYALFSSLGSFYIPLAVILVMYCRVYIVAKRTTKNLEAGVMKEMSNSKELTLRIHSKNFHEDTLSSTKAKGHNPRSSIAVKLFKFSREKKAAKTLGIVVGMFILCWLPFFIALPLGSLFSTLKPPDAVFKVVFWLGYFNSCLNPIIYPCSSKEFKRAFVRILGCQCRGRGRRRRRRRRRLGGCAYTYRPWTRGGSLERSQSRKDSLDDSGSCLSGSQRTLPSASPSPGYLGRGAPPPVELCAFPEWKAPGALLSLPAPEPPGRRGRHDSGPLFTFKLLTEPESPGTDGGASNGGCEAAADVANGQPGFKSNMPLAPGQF
Procedure: as §1, §2, §3, §4

α1d-AR = biological target: T3, α1d-AR (Homo sapiens, UniProt P25100); experiment: α1-Adrenergic receptor radio-ligand (125I-HEAT) binding assay, α1d subtype; conditions: COS-7 cell membranes transfected with α1d-AR, 125I-HEAT 50 pM; read-out: Receptor Binding, Ki α1d-AR
T3 construct: expressed in transfected cells; host or cells: COS-7
T3 sequence (P25100 1-572): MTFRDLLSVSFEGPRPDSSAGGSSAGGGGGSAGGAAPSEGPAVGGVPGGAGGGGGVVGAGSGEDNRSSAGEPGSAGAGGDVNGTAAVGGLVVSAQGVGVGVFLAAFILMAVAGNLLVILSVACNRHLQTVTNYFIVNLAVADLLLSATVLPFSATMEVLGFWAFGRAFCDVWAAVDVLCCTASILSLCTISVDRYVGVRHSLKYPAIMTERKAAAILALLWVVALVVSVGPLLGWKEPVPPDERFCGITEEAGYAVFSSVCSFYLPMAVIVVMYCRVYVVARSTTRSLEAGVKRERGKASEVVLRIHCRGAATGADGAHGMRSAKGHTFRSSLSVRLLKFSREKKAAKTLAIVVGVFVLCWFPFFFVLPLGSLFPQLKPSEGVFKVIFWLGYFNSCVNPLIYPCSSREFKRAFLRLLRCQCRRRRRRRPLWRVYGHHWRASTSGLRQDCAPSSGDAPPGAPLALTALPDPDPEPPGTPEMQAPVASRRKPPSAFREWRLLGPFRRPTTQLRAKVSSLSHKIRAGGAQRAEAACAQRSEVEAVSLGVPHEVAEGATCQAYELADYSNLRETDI
Procedure: as §1, §2, §3, §4

For `CCOC(OCC)c1ccc(CNc2ccc3c(c2)CCN3C(=O)c2cccc(CN3CCN(c4ccccc4OC(C)C)CC3)c2)cc1` [Cpd 24, [5-(4-diethoxymethyl-benzylamino)-2,3-dihydro-indol-1-yl]-{3-[4-(2-isopropoxy-phenyl)-piperazin-1-ylmethyl]-phenyl}-methanone], the Ki (α1a-AR) was 48 nM, the Ki (α1b-AR) was 1470 nM and the Ki (α1d-AR) was 15 nM.

Work on `CC(C)Oc1ccccc1N1CCN(Cc2cccc(C(=O)N3CCc4cc(NCc5ccc6c(c5)OCO6)ccc43)c2)CC1` [Cpd 27, {5-[(benzo[1,3]dioxol-5-ylmethyl)-amino]-2,3-dihydro-indol-1-yl}-{3-[4-(2-isopropoxy-phenyl)-piperazin-1-ylmethyl]-phenyl}-methanone] yielded a Ki (α1a-AR) of 16.5 nM, a Ki (α1b-AR) of 379 nM and a Ki (α1d-AR) of 11 nM.

Work on `COc1cccc(OC)c1C(=O)Nc1ccc2c(c1)N(C(=O)c1cccc(CN3CCN(c4ccccc4OC(C)C)CC3)c1)CC2` [Cpd 28, N-(1-{3-[4-(2-isopropoxy-phenyl)-piperazin-1-ylmethyl]-benzoyl}-2,3-dihydro-1H-indol-6-yl)-2,6-dimethoxy-benzamide] yielded a Ki (α1a-AR) of 17 nM, a Ki (α1b-AR) of 796 nM and a Ki (α1d-AR) of 6.8 nM.

For `COc1ccccc1N1CCN(Cc2cccc(C(=O)N3CCc4ccccc43)c2)CC1` [Cpd 30, (2,3-dihydro-indol-1-yl)-{3-[4-(2-methoxy-phenyl)-piperazin-1-ylmethyl]-phenyl}-methanone], the Ki (α1a-AR) was 26 nM and 30.5 nM, the Ki (α1b-AR) was 278 nM and 193 nM and the Ki (α1d-AR) was 4.5 nM and 42 nM.

With `N#Cc1ccccc1N1CCN(Cc2cccc(C(=O)N3CCc4ccccc43)c2)CC1` [Cpd 31, (2,3-dihydro-indol-1-yl)-{3-[4-(2-cyano-phenyl)-piperazin-1-ylmethyl]-phenyl}-methanone] the Ki (α1a-AR) was 171 nM, the Ki (α1b-AR) was 331 nM and the Ki (α1d-AR) was 11.6 nM and 88 nM.

`COc1ccccc1C1CCN(Cc2ccc(C(=O)N3CCc4cc(N)ccc43)cc2)CC1` [Cpd 33, (5-amino-2,3-dihydro-indol-1-yl)-{4-[4-(2-methoxy-phenyl)-piperidin-1-ylmethyl]-phenyl}-methanone] was tested, and the Ki (α1a-AR) was 48.8 nM, the Ki (α1b-AR) was 658 nM and the Ki (α1d-AR) was 49.1 nM.

In the case of `COc1ccccc1C1CCN(Cc2ccc(C(=O)N3CCc4ccc(N)cc43)cc2)CC1` [Cpd 34, (6-amino-2,3-dihydro-indol-1-yl)-{4-[4-(2-methoxy-phenyl)-piperidin-1-ylmethyl]-phenyl}-methanone], the Ki (α1a-AR) is reported as 34.9 nM, the Ki (α1b-AR) is reported as 473 nM and the Ki (α1d-AR) is reported as 49.6 nM.

`COc1ccccc1C1CCN(Cc2ccc(C(=O)N3CCc4ccc([N+](=O)[O-])cc43)cc2)CC1` [Cpd 35, {4-[4-(2-methoxy-phenyl)-piperidin-1-ylmethyl]-phenyl}-(6-nitro-2,3-dihydro-indol-1-yl)-methanone] showed a Ki (α1a-AR) of 5.3 nM, a Ki (α1b-AR) of 201 nM and a Ki (α1d-AR) of 8.5 nM.

`CCOC(OCC)c1ccc(CNc2ccc3c(c2)CCN3C(=O)c2ccc(CN3CCC(c4ccccc4OC)CC3)cc2)cc1` [Cpd 36, [5-(4-diethoxymethyl-benzylamino)-2,3-dihydro-indol-1-yl]-{4-[4-(2-methoxy-phenyl)-piperidin-1-ylmethyl]-phenyl}-methanone] was tested, and the Ki (α1a-AR) was 39.2 nM, the Ki (α1b-AR) was 1010 nM and the Ki (α1d-AR) was 40.2 nM.

For `CCOC(OCC)c1ccc(CNc2ccc3c(c2)N(C(=O)c2ccc(CN4CCC(c5ccccc5OC)CC4)cc2)CC3)cc1` [Cpd 37, [6-(4-diethoxymethyl-benzylamino)-2,3-dihydro-indol-1-yl]-{4-[4-(2-methoxy-phenyl)-piperidin-1-ylmethyl]-phenyl}-methanone], the Ki (α1a-AR) was 75.6 nM, the Ki (α1b-AR) was 909 nM and the Ki (α1d-AR) was 98 nM.

`COc1ccccc1C1CCN(Cc2ccc(C(=O)N3CCc4cc([N+](=O)[O-])ccc43)cc2)CC1` [Cpd 38, {4-[4-(2-methoxy-phenyl)-piperidin-1-ylmethyl]-phenyl}-(5-nitro-2,3-dihydro-indol-1-yl)-methanone] gave a Ki (α1a-AR) of 124 nM, a Ki (α1b-AR) of 461 nM and a Ki (α1d-AR) of 44.2 nM.

Compound `COc1ccccc1C1CCN(Cc2ccc(C(=O)N3CCc4ccc(NC(=O)c5c(OC)cccc5OC)cc43)cc2)CC1` [Cpd 39, 2,6-dimethoxy-N-(1-{4-[4-(2-methoxy-phenyl)-piperidin-1-ylmethyl]-benzoyl}-2,3-dihydro-1H-indol-6-yl)-benzamide] has a Ki (α1a-AR) of 74 nM, a Ki (α1b-AR) of 595 nM and a Ki (α1d-AR) of 41 nM.

`CC(C)Oc1ccccc1N1CCN(Cc2cccc(C(=O)N3CCc4ccc(NCc5ccc6c(c5)OCO6)cc43)c2)CC1` [Cpd 41, {6-[(benzo[1,3]dioxol-5-ylmethyl)-amino]-2,3-dihydro-indol-1-yl}-{3-[4-(2-isopropoxy-phenyl)-piperazin-1-ylmethyl]-phenyl}-methanone] gave a Ki (α1a-AR) of 31 nM, a Ki (α1b-AR) of 208 nM and a Ki (α1d-AR) of 1.5 nM.

`COc1ccc(C(=O)Nc2ccc3c(c2)N(C(=O)c2cccc(CN4CCN(c5ccccc5OC(C)C)CC4)c2)CC3)cc1` [Cpd 42, N-(1-{3-[4-(2-isopropoxy-phenyl)-piperazin-1-ylmethyl]-benzoyl}-2,3-dihydro-1H-indol-5-yl)-4-methoxy-benzamide] gave a Ki (α1a-AR) of 3.8 nM, a Ki (α1b-AR) of 447 nM and a Ki (α1d-AR) of 5.8 nM.

`CC(C)Oc1ccccc1N1CCN(Cc2cccc(C(=O)N3CCc4ccc(N(C(=O)Nc5c(F)cccc5F)C(=O)Nc5c(F)cccc5F)cc43)c2)CC1` [Cpd 43, 3-(2,6-difluoro-phenyl)-1-(1-{3-[4-(2-isopropoxy-phenyl)-piperazin-1-ylmethyl]-benzoyl}-2,3-dihydro-1H-indol-6-yl)-1-(2,6-difluorophenylaminocarbonyl)-urea] was tested, and the Ki (α1a-AR) was 7.8 nM and 3.4 nM, the Ki (α1b-AR) was 204 nM and 185 nM and the Ki (α1d-AR) was 2.8 nM and 3.2 nM.

For `CC(C)Oc1ccccc1N1CCN(Cc2cccc(C(=O)N3CCc4ccc(NS(=O)(=O)c5c(F)cccc5F)cc43)c2)CC1` [Cpd 45, 2,6-difluoro-N-(1-{3-[4-(2-isopropoxy-phenyl)-piperazin-1-ylmethyl]-benzoyl}-2,3-dihydro-1H-indol-6-yl)-benzenesulfonamide], the Ki (α1a-AR) was 2.6 nM, the Ki (α1b-AR) was 888 nM and the Ki (α1d-AR) was 4 nM.
